Like-named read-outs stand apart in the source and are kept apart here.
What was measured:
SARS-CoV-2 = conditions: read-out: IC50 of FDA-approved drugs applied in COVID-19 treatment protocols; cited from earlier work
in vitro = conditions: African green monkey
MERS-CoV "NRCE-HKU270" = assay: microbe, parasite or virus in culture; type: cell-based; conditions: for IC50: Middle East respiratory syndrome-related coronavirus, Vero C1008, read-out: Antiviral Activities MERS-CoV IC50 (µM)
[1] = test system: SARS-CoV-2 "NRC-03-nhCoV"; assay: microbe, parasite or virus in culture; type: cell-based
[2] = test system: NRC-03-nhCoV in Vero-E6 cells; assay: microbe, parasite or virus in culture; type: cell-based, SARS-CoV-2; conditions: Severe acute respiratory syndrome coronavirus 2, Vero C1008, read-out: Half maximal inhibitory concentration (IC50) against NRC-03-nhCoV
[3] = Severe acute respiratory syndrome coronavirus 2, Vero C1008, read-out: Antiviral Activities SARS-CoV-2 IC50 (µM)
[4] = read-out: Antiviral Activities SARS-CoV-2 IC50

| SMILES | IC50 (SARS-CoV-2) | CC50 (in vitro; Cytotoxicity (CC50, µM)) | melting point | Antiviral Activities MERS-CoV SI (selectivity index) (MERS-CoV "NRCE-HKU270") | IC50 (MERS-CoV "NRCE-HKU270") | Antiviral Activities SARS-CoV-2 SI (selectivity index) [1] | IC50 [1, 3] | IC50 [2] | IC50 [1, 4] | CC50 (in vitro; Half maximal cytotoxic concentration (CC50)) |
| --- | --- | --- | --- | --- | --- | --- | --- | --- | --- | --- |
| CC[C@H]1OC(=O)[C@H](C)[C@@H](O[C@H]2C[C@@](C)(OC)[C@@H](O)[C@H](C)O2)[C@H](C)[C@@H](O[C@@H]2O[C@H](C)C[C@H](N(C)C)[C@H]2O)[C@](C)(O)C[C@@H](C)CN(C)[C@H](C)[C@@H](O)[C@]1(C)O [Azithromycin] | 2.12 µM | – | – | – | – | – | – | – | – | – |
| O=C1Nc2ccccc2[C@]12C[C@@H](S(=O)(=O)c1ccccc1)[C@H]1CCCN12 [Compound 4a, (1’R,3R,7a’R)-1’-(Phenylsulfonyl)-1’,2’,5’,6’,7’,7a’-hexahydrospiro[indoline-3,3’-pyrrolizin]-2-one] | – | 326 µM | 298 °C | 5.25 | 62 µM | 11.24 | 29 µM | – | – | – |
| O=C1Nc2ccc(Cl)cc2[C@]12C[C@@H](S(=O)(=O)c1ccccc1)[C@H]1CSCN12 [Compound 4b, (3R,7’R,7a’R)-5-Chloro-7’-(phenylsulfonyl)-1’,6’,7’,7a’-tetrahydro-3’H-spiro[indoline-3,5’-pyrrolo [1,2-c]thiazole]-2-one] | – | 1040 µM | 282 °C | 9.95 | 105 µM | 5.38 | 194 µM | – | – | – |
| O=C1Nc2ccc([N+](=O)[O-])cc2[C@]12C[C@@H](S(=O)(=O)c1ccccc1)[C@H]1C[C@H](O)CN12 [Compound 4c, (1’R,3R,6’S,7a’R)-6’-Hydroxy-5-nitro-1’-(phenylsulfonyl)-1’,2’,5’,6’,7’,7a’-hexahydrospiro[indoline-3,3’-pyrrolizin]-2-one] | – | 1100 µM | – | 16.84 | 65 µM | – | 17 µM | 8.79 µM | 18 µM | – |
| O=C1Nc2ccc(Br)cc2[C@]12C[C@@H](S(=O)(=O)c1ccccc1)[C@H]1C[C@H](O)CN12 [Compound 4d, (1’R,3R,6’S,7a’R)-5-Bromo-6’-hydroxy-1’-(phenylsulfonyl)-1’,2’,5’,6’,7’,7a’-hexahydrospiro[indoline-3,3’-pyrrolizin]-2-one] | – | 206 µM | 220 °C | 8.95 | 23 µM | 8.58 | 24 µM | – | – | – |
| O=C1Nc2ccc([N+](=O)[O-])cc2[C@]12C[C@@H](S(=O)(=O)c1ccccc1)[C@H]1CSCN12 [Compound 4e, (3R,7’R,7a’R)-5-Nitro-7’-(phenylsulfonyl)-1’,6’,7’,7a’-tetrahydro-3’H-spiro[indoline-3,5’-pyrrolo [1,2-c]thiazole]-2-one] | – | 289 µM | 95 °C | 3.90 | 74 µM | 17 | 18 µM | – | 17 µM | – |
| COc1ccc2c(c1)[C@]1(C[C@@H](S(=O)(=O)c3ccccc3)[C@H]3CSCN31)C(=O)N2 [Compound 4f, (3R,7’R,7a’R)-5-Methoxy-7’-(phenylsulfonyl)-1’,6’,7’,7a’-tetrahydro-3’H-spiro[indoline-3,5’-pyrrolo [1,2-c]thiazole]-2-one] | – | 345 µM | 105 °C | 3.92 | 88 µM | <1 | 2250 µM | – | – | – |
| O=C1Nc2ccc(Cl)cc2[C@]12C[C@@H](S(=O)(=O)c1ccccc1)[C@H]1CCCN12 [Compound 4g, (1’R,3R,7a’R)-5-Chloro-1’-(phenylsulfonyl)-1’,2’,5’,6’,7’,7a’-hexahydrospiro[indoline-3,3’-pyrrolizin]-2-one] | – | 405 µM | 254 °C | 3.97 | 101 µM | 1 | 405 µM | – | – | – |
| COc1ccc2c(c1)[C@]1(C[C@@H](S(=O)(=O)c3ccccc3)[C@H]3CCCN31)C(=O)N2 [Compound 4h, (1’R,3R,7a’R)-5-Methoxy-1’-(phenylsulfonyl)-1’,2’,5’,6’,7’,7a’-hexahydrospiro[indoline-3,3’-pyrrolizin]-2-one] | – | 571 µM | 240 °C | 38.06 | 15 µM | 15.43 | 37 µM | – | – | – |
| O=C1Nc2ccccc2[C@]12C[C@@H](S(=O)(=O)c1ccccc1)[C@H]1CSCN12 [Compound 4i, (3R,7’R,7a’R)-7’-(Phenylsulfonyl)-1’,6’,7’,7a’-tetrahydro-3’H-spiro[indoline-3,5’-pyrrolo [1,2-c]thiazole]-2-one] | – | 1990 µM | – | – | 11 µM | – | 34 µM | 14.7 µM | – | – |
| O=C1Nc2ccc(Br)cc2[C@]12C[C@@H](S(=O)(=O)c1ccccc1)[C@H]1CCCN12 [Compound 4j, (1’R,3R,7a’R)-5-Bromo-1’-(phenylsulfonyl)-1’,2’,5’,6’,7’,7a’-hexahydrospiro[indoline-3,3’-pyrrolizin]-2-one] | – | 200 µM | 250 °C | <1 | 376 µM | 1.01 | 197 µM | – | – | – |
| CN1C(=O)[C@@]2(C[C@@H](S(=O)(=O)c3ccccc3)[C@H]3CCCN32)c2ccccc21 [Compound 4k, (1’R,3R,7a’R)-1-Methyl-1’-(phenylsulfonyl)-1’,2’,5’,6’,7’,7a’-hexahydrospiro[indoline-3,3’-pyrrolizin]-2-one] | – | 883 µM | – | 13.37 | 66 µM | – | 27 µM | 5.98 µM | – | 882 µM |
| O=C1N(CCBr)c2ccccc2[C@]12C[C@@H](S(=O)(=O)c1ccccc1)[C@H]1CCCN12 [Compound 4l, (1’R,3R,7a’R)-1-(2-Bromoethyl)-1’-(phenylsulfonyl)-1’,2’,5’,6’,7’,7a’-hexahydrospiro[indoline-3,3’-pyrrolizin]-2-one] | – | 206 µM | 70 °C | 1.41 | 146 µM | 1.92 | 107 µM | – | – | – |
| O=C1Nc2cc(Cl)ccc2[C@]12C[C@@H](S(=O)(=O)c1ccccc1)[C@H]1CCCN12 [Compound 4m] | – | 225 µM | – | 1.17 | 191 µM | <1 | 305 µM | – | – | – |
| O=C1Nc2cc(Cl)ccc2[C@]12C[C@@H](S(=O)(=O)c1ccccc1)[C@H]1CSCN12 [Compound 4n, (3R,7’R,7a’R)-6-Chloro-7’-(phenylsulfonyl)-1’,6’,7’,7a’-tetrahydro-3’H-spiro[indoline-3,5’-pyrrolo [1,2-c]thiazole]-2-one] | – | 222 µM | – | – | 15 µM | – | 667 µM | – | – | – |
| CCC(CC)COC(=O)[C@H](C)N[P@](=O)(OC[C@H]1O[C@@](C#N)(c2ccc3c(N)ncnn23)[C@H](O)[C@@H]1O)Oc1ccccc1 [Remdesivir, reference compound] | – | 473 µM | – | 172.66 | 2.74 µM | 70.40 | 6.72 µM | 6.72 µM | – | – |
| NC(=O)c1ncn([C@@H]2O[C@H](CO)[C@@H](O)[C@H]2O)n1 [Ribavirin] | 70 µM | – | – | – | – | – | – | – | – | – |
| CC(C)c1nc(CN(C)C(=O)N[C@H](C(=O)N[C@@H](Cc2ccccc2)C[C@H](O)[C@H](Cc2ccccc2)NC(=O)OCc2cncs2)C(C)C)cs1 [Ritonavir] | ≥ 100 µM | – | – | – | – | – | – | – | – | – |
